Data reported in patent publication US9193728B2, “Fused tetracyclic pyrido [4,3-B] indole and pyrido [3,4-B] indole derivatives and methods of use” (Medivation Technologies, Inc., priority 2010, dated 2015).

Columns and labels:
[1] = biological target: T1, human recombinant serotonin (5-Hydroxytryptamine) 5-HT6 receptor (Homo sapiens, UniProt P50406); assay: Serotonin 5-HT6 radioligand binding ([3H]LSD); conditions: for inhibition at 0.1 µM / Serotonin (0.1 μM) 5-HT6, percentage inhibition of ligand binding: compound at 0.1 μM; for inhibition at 0.1 µM: read-out: Serotonin (0.1 μM) 5-HT6, percentage inhibition of ligand binding
T1 construct: expressed in transfected cells; host or cells: HeLa
T1 sequence (P50406 whole entry): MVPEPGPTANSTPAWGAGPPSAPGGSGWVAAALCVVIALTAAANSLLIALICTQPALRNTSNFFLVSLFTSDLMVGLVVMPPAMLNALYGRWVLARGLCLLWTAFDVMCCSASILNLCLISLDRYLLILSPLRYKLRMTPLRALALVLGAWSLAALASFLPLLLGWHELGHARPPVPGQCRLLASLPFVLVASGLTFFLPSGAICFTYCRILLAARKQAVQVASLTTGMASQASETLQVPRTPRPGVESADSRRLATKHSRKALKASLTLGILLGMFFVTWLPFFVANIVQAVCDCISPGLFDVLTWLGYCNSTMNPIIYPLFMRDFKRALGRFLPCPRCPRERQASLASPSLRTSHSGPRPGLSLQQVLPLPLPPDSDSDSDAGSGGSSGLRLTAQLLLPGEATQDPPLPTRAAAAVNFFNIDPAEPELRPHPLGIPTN
Experimental: To evaluate in radioligand binding assays the activity of compounds of the invention, human recombinant serotonin (5-Hydroxytryptamine) 5-HT6 receptor expressed in human HeLa cells (Monsma, F. Jr. et al, Mol. Pharmacol. 43:320, 1993) in a modified Tris-HCl buffer (50 mM Tris-HCl, pH 7.4, 150 mM NaCl, 2 mM Ascorbic Acid, 0.001% BSA) was used. Compounds of the invention were incubated with 1.5 nM [3H]Lysergic acid diethylamide (LSD) for 120 min. at 37° C. Non-specific binding was estimated in the presence of 5 μM Serotonin (5-HT). Receptor proteins were filtered and washed, the filters were then counted to determine [3H]LSD specifically bound. Compounds were screened at 1 μM or lower, using 1% DMSO as vehicle. Biochemical assay results are presented as the percent inhibition of specific binding in Table 4.

[2] = biological target: T2, human recombinant serotonin (5-Hydroxytryptamine) 5-HT7 receptor (Homo sapiens, UniProt P34969); assay: Serotonin 5-HT7 radioligand binding ([3H]LSD); conditions: for inhibition at 0.1 µM / Serotonin (0.1 μM) 5-HT7, percentage inhibition of ligand binding: compound at 0.1 μM; for inhibition at 0.1 µM: read-out: Serotonin (0.1 μM) 5-HT7, percentage inhibition of ligand binding
T2 construct: expressed in transfected cells; host or cells: CHO
T2 sequence (P34969 whole entry): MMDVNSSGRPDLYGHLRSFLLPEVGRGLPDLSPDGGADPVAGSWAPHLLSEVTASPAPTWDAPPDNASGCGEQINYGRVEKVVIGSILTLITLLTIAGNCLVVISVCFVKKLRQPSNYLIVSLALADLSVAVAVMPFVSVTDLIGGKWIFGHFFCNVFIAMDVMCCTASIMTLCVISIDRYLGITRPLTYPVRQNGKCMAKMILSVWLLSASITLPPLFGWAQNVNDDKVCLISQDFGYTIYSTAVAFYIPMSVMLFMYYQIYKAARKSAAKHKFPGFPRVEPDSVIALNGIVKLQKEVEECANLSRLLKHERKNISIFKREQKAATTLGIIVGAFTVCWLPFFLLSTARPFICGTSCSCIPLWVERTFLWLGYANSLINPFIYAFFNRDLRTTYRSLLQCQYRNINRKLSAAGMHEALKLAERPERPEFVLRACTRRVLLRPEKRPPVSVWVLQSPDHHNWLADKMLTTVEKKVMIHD
Experimental: To evaluate in radioligand binding assays the activity of compounds of the invention, human recombinant serotonin (5-Hydroxytryptamine) 5-HT7 receptor expressed in Chinese hamster ovary (CHO) cells (Roth, B. et al, J. Pharmacol. Exp. Ther. 268:1403, 1994; Shen, Y. et al, J. Biol. Chem. 268:18200, 1993) in a modified Tris-HCl buffer (50 mM Tris-HCl, pH 7.4, 10 mM MgCl2, 0.5 mM EDTA) was used. Compounds of invention were incubated with 5.5 nM [^3H]Lysergic acid diethylamide (LSD) for 120 min. at 25° C. Non-specific binding was estimated in the presence of 10 μM Serotonin (5-HT). Receptor proteins were filtered and washed, the filters were then counted to determine [^3H]LSD specifically bound. Compounds were screened at 1 μM or lower, using 1% DMSO as vehicle. Biochemical assay results are presented as the percent inhibition of specific binding in Table 4.

[3] = biological target: T3, human recombinant histamine H1 receptor (Homo sapiens, UniProt P35367); assay: Histamine H1 radioligand binding ([3H]Pyrilamine); conditions: 1.2 nM [3H]Pyrilamine; for inhibition at 0.1 µM / Histamine Binding (0.1 μM) H1, percentage inhibition: compound at 0.1 μM; for inhibition at 0.1 µM: read-out: Histamine Binding (0.1 μM) H1, percentage inhibition
T3 construct: expressed in transfected cells; host or cells: CHO-K1
T3 sequence (P35367 whole entry): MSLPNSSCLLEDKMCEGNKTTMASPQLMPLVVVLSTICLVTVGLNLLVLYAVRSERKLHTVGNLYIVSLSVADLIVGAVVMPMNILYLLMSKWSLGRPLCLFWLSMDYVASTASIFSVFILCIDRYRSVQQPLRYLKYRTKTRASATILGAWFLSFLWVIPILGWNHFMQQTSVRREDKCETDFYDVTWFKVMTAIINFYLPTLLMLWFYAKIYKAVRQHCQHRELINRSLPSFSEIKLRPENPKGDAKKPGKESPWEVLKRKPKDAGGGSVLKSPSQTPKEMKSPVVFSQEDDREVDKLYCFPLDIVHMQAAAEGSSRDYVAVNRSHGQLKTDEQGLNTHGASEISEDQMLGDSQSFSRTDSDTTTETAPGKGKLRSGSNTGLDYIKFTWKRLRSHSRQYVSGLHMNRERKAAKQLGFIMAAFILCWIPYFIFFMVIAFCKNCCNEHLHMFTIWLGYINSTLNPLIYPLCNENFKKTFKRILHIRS
Experimental: To evaluate in radioligand binding assays the activity of compounds of the invention, human recombinant histamine H1 receptor expressed in Chinese hamster ovary (CHO) K1 cells (De Backer, M. et al, Biochem. Biophys. Res. Comm. 197(3):1601, 1993) in a modified Tris-HCl buffer (50 mM Tris-HCl, pH 7.4, 2 mM MgCl2, 100 mM NaCl, 250 mM Sucrose) was used. Compounds of the invention were incubated with 1.2 nM [^3H]Pyrilamine for 180 min. at 25° C. Non-specific binding was estimated in the presence of 1 μM Pyrilamine. Receptor proteins were filtered and washed, the filters were then counted to determine [^3H]Pyrilamine specifically bound. Compounds were screened at 1 μM or lower, using 1% DMSO as vehicle. Biochemical assay results are presented as the percent inhibition of specific binding in Table 2.

[4] = biological target: T4, human recombinant dopamine D2L receptor (Homo sapiens, UniProt P14416); assay: Dopamine D2L radioligand binding ([3H]Spiperone); conditions: compound at 1 μM; for inhibition at 1 µM: read-out: Dopamine (1 μM) D2L, percentage inhibition of ligand binding
T4 construct: expressed in transfected cells; host or cells: CHO
T4 sequence (P14416 whole entry): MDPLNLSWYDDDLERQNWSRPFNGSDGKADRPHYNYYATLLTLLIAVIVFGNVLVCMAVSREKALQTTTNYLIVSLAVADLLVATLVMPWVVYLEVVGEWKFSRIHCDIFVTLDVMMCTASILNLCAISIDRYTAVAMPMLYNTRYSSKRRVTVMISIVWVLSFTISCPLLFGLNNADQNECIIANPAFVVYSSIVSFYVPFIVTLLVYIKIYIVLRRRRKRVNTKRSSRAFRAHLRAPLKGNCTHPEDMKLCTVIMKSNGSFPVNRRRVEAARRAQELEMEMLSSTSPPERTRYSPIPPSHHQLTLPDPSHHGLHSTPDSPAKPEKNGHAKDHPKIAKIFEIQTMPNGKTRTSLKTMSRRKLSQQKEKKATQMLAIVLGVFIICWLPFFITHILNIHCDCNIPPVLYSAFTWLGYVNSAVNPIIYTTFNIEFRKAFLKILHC
Experimental: To evaluate in radioligand binding assays the activity of compounds of the invention, human recombinant dopamine D2L receptor expressed in Chinese hamster ovary (CHO) cells (Grandy, D. et al, Proc. Natl. Acad. Sci. USA. 86:9762, 1989; Hayes, G. et al, Mol. Endocrinol. 6:920, 1992) in a modified Tris-HCl buffer (50 mM Tris-HCl, pH 7.4, 1.4 mM Ascorbic Acid, 0.001% BSA, 150 mM NaCl) was used. Compounds of the invention were incubated with 0.16 nM [^3H]Spiperone for 120 min. at 25° C. Non-specific binding was estimated in the presence of 10 μM Haloperidol. Receptor proteins were filtered and washed, the filters were then counted to determine [^3H]Spiperone specifically bound. Compounds were screened at 1 μM or lower, using 1% DMSO as vehicle. Biochemical assay results are presented as the percent inhibition of specific binding in Table 3.

[5] = biological target: T5, rat adrenergic α1A receptor (Rattus norvegicus, UniProt P43140); assay: Adrenergic α1A radioligand binding ([3H]Prazosin); conditions: compound at 0.1 μM; for inhibition at 0.1 µM: read-out: Adrenergic (0.1 μM) a1A, percentage inhibition of ligand binding
T5 construct: rat adrenergic α1A receptor obtained from Wistar Rat submaxillary glands; from tissue; host or cells: Wistar rat submaxillary glands
T5 sequence (P43140 1-466): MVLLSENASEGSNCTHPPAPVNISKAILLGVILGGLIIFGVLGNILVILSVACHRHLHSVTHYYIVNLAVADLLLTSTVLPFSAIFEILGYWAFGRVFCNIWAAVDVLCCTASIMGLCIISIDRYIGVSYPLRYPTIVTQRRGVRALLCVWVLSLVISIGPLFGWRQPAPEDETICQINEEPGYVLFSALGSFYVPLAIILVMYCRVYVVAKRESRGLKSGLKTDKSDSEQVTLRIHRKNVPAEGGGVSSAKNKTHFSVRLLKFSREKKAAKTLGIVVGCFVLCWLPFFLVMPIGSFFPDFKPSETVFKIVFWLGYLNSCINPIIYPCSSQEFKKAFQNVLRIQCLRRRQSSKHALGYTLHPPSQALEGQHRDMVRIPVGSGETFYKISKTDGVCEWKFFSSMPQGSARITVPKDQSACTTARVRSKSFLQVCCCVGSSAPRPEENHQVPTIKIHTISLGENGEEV
Experimental: To evaluate in radioligand binding assays the activity of compounds of the invention, rat adrenergic α1A receptor obtained from Wistar Rat submaxillary glands (Michel, A. et al, Br. J. Pharmacol. 98:883, 1989) in a modified Tris-HCl buffer (50 mM Tris-HCl buffer, pH 7.4, 0.5 mM EDTA) was used. Compounds of the invention were incubated with 0.25 nM [^3H]Prazosin for 60 min. at 25° C. Non-specific binding was estimated in the presence of 10 μM phentolamine. Receptor proteins were filtered and washed, the filters were then counted to determine [^3H]Prazosin specifically bound. Compounds of the invention were screened at 1 μM or lower, using 1% DMSO as vehicle. Biochemical assay results are presented as the percent inhibition of specific binding in Table 3.

Work on `Cc1cc2c3c(c1)c1c(n3CC(c3ccc(F)cc3)C2)CCN(C)C1` (stereo not drawn) [Compound 3] yielded an inhibition at 0.1 µM [1] of 80%, an inhibition at 1 µM ([1]; compound at 1 μM, read-out: Serotonin (1 μM) 5-HT6, percentage inhibition of ligand binding) of 96% and an inhibition at 1 µM ([2]; compound at 1 μM, read-out: Serotonin (1 μM) 5-HT7, percentage inhibition of ligand binding) of 53%. The inhibition at 0.1 µM [3] was 49%, the inhibition at 1 µM ([3]; compound at 1 μM, read-out: Histamine Binding (1 μM) H1, percentage inhibition) was 83% and the inhibition at 1 µM [4] was 96%.
For `Cc1cc2c3c(c1)c1c(n3CC(C)(c3ccc(C)nc3)OC(C)C2)CCN(C)C1` (stereo not drawn) [Compound 160], the inhibition at 0.1 µM [5] was -5%, the inhibition at 0.1 µM [1] was -10% and the inhibition at 0.1 µM [2] was 14%. For the same molecule, the inhibition at 0.1 µM [3] was 0% and the inhibition at 1 µM [4] was 7%.
In the case of `Cc1cc2c3c(c1)c1c(n3CC(C)(c3ccc(C)nc3)OC2C)CCN(C)C1` (stereo not drawn) [Compound 161], the “Adrenergic (0.1 μM) a1A, percentage inhibition of ligand binding” value [5] was −8%, the “Serotonin (0.1 μM) 5-HT6, percentage inhibition of ligand binding” value [1] was −8% and the “Serotonin (0.1 μM) 5-HT7, percentage inhibition of ligand binding” value [2] was −8%. The “Histamine Binding (0.1 μM) H1, percentage inhibition” value [3] was 13% and the “Dopamine (1 μM) D2L, percentage inhibition of ligand binding” value [4] was 10%.
Molecule `Cc1cc2c3c(c1)c1c(n3C[C@@](C)(c3ccncc3)O[C@H]2C)CCN(C)C1` [Compound 162] has an inhibition at 0.1 µM [5] of -3%, an inhibition at 0.1 µM [1] of -8% and an inhibition at 0.1 µM [2] of 5%. It also gave an inhibition at 0.1 µM [3] of 25% and an inhibition at 1 µM [4] of 11%.
`Cc1cc2c3c(c1)c1c(n3C[C@](C)(c3ccncc3)O[C@H]2C)CCN(C)C1` [Compound 163] showed an inhibition at 0.1 µM [5] of -17%, an inhibition at 0.1 µM [1] of 8% and an inhibition at 0.1 µM [2] of -3%. For the same molecule, the inhibition at 0.1 µM [3] was 11% and the inhibition at 1 µM [4] was 15%.
For `Cc1cc2c3c(c1)c1c(n3CC(C)(c3ccc(C)nc3)OC2C)CCN(C)C1` (stereo not drawn) [Compound 164], the “Adrenergic (0.1 μM) a1A, percentage inhibition of ligand binding” value [5] was −7%, the “Serotonin (0.1 μM) 5-HT6, percentage inhibition of ligand binding” value [1] was −9% and the “Serotonin (0.1 μM) 5-HT7, percentage inhibition of ligand binding” value [2] was −12%. The “Histamine Binding (0.1 μM) H1, percentage inhibition” value [3] was −5% and the “Dopamine (1 μM) D2L, percentage inhibition of ligand binding” value [4] was 3%.
Molecule `Cc1cc2c3c(c1)c1c(n3CC(C)(c3ccncc3)OC(C)C2)CCN(C)C1` (stereo not drawn) [Compound 165] has an inhibition at 0.1 µM [5] of 11%, an inhibition at 0.1 µM [1] of 10% and an inhibition at 0.1 µM [2] of -2%. It also gave an inhibition at 0.1 µM [3] of 37% and an inhibition at 1 µM [4] of 10%.
